Test results: PubChem BioAssay (NCI)
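These data come from cells grown in 96-well plates and exposed to compound for 48 hours at five concentrations. The concentration for full growth arrest is given as TGI.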

Key:
Test in all cases: DTP human tumour cell line panel, 48 h
[1] = system: UACC-257 melanoma
[2] = system: TK-10 renal
[3] = system: NCI-H460 lung
[4] = system: NCI-H226 lung
[5] = system: HL-60(TB) leukemia
[6] = system: SR leukemia
[7] = system: T-47D breast
[8] = system: IGROV1 ovarian
[9] = system: LOX IMVI melanoma
[10] = system: EKVX NSCLC
[11] = system: MCF7 breast
[12] = system: SNB-75 CNS
[13] = system: OVCAR-3 ovarian
[14] = system: MALME-3M melanoma
[15] = system: K-562 leukemia
[16] = system: HOP-92 NSCLC
[17] = system: KM12 colon
[18] = system: SW-620 colon
[19] = system: HCC-2998 colon

Row | SMILES | TGI [1] [µM] | TGI [2] [µM] | TGI [3] [µM] | TGI [4] [µM] | TGI [5] [µM] | TGI [6] [µM] | TGI [7] [µM] | TGI [8] [µM] | TGI [9] [µM] | TGI [10] [µM] | TGI [11] [µM] | TGI [12] [µM] | TGI [13] [µM] | TGI [14] [µM] | TGI [15] [µM] | TGI [16] [µM] | TGI [17] [µM] | TGI [18] [µM] | TGI [19] [µM]
1 | O=c1[nH]c2ccc(Cl)cc2o1 | > 100 | > 100 | > 100 | > 100 | > 100 | > 100 | > 100 | > 100 | > 100 | > 100 | > 100 | > 100 | > 100 | > 100 | > 100 | > 100 | > 100 | > 100 | 
2 | CC1CC(=NC2CCCCC2)Nc2ccccc2N1Cc1ccccc1 (configuration not stated) | 13.2 | 25.2 | 14.5 | 27.8 | 20.2 | > 100 | 20.7 | 8.61 | 6.85 | 21 | 14.5 | 3.18 | 20.4 | 8.8 | > 36.1 |  | 17 | 23 | 11.5
3 | COc1c2cc([N+](=O)[O-])cc1CN(C(=O)C(F)(F)F)CCOCCN(C(=O)C(F)(F)F)C2 | > 100 | > 100 | > 100 | > 100 | > 100 |  | > 100 | > 100 | > 100 | > 100 | > 100 | > 100 | > 100 | > 100 |  | > 100 | > 100 | > 100 | 
4 | c1ccc(C2=NN=C3C(c4ccccc4)=Nc4ccccc4N3C2)cc1 | 32.4 | 43.4 | 23.5 | > 70.2 | 22.2 |  | > 100 | > 100 | > 100 | > 68.6 | > 77.4 |  | > 24.5 | 97.9 | > 100 | > 88.9 | > 100 | > 100 | > 100
5 | CCCCCCCCCC(=O)NC(CCC(=O)N(CCNC(=O)c1nc(-c2ccccc2)oc1-c1ccccc1)Cc1ccccc1)C(=O)O (configuration not stated) | 54.7 | 53.6 | > 100 | 55.5 |  |  | 47.7 | 39.8 | 35.9 | 35.1 |  | 29.6 | 30.1 | 34.8 |  | 34.8 | 46.6 | 41.8 | 
6 | COc1cc2c(c(OC)c1OC)C(=O)[C@@H](O)[C@H]2NC(N)=O | > 100 | > 100 | > 100 | > 100 | > 100 |  | > 100 | > 100 | > 100 | > 100 | > 100 | > 100 | > 100 | > 100 | > 100 |  | > 100 | > 100 | > 100
7 | Cc1ccc2c(=O)c(-c3nnc(NC4CCCCC4)s3)c[nH]c2n1 | > 100 | > 100 | > 100 | > 100 | > 100 |  | > 100 | > 100 | > 100 | > 100 | > 100 |  | > 100 | > 100 | > 100 |  | > 100 | > 100 | 
8 | COC1(OC)N=C(N)C2(C#N)C(C)=C3NCN(C)N=C3C12C#N (configuration not stated) | > 100 | > 100 |  | > 100 |  |  | > 100 | > 100 | > 100 | > 100 | > 100 | > 100 | > 100 | > 100 | > 100 | > 100 | > 100 | > 100 | > 100
9 | Cc1cc2c(nn1)CCc1c-2no[n+]1[O-] | > 100 | > 100 | > 100 | > 100 |  | > 100 | > 100 | > 100 | > 100 | > 100 | > 100 | > 100 | > 100 | > 100 | > 100 |  | > 100 | > 100 | > 100
10 | COc1ccc(-c2c(-c3ccccc3)c(C)nc3[nH]c(=S)[nH]c(=S)c23)cc1OC | > 100 | > 100 | 98.3 | > 100 | > 100 |  | > 100 | > 100 | > 100 | > 100 | > 100 | > 100 | 40.2 | 90.1 | > 100 | > 100 | 42.7 | > 100 | > 100
11 | CN(C)CCNC(=O)c1cccc2c1Oc1cccc([N+](=O)[O-])c1O2 | 35.5 | > 100 | 35.4 | 27.9 | 51.7 | 76.1 | 27.9 | 34.1 |  |  | 40.6 | 40.5 | 49.7 | 28.1 | 45.5 |  | 44.7 | 46.2 | 56.1
12 | O=C(OCc1ccccc1)c1ccc(NCc2cc(O)ccc2O)cc1 | 3.4 | 3.87 | 18.7 | 7.69 | 2.56 |  |  | 2.49 | 3.14 | 3.48 | 7.81 | 3.39 | 2.38 | 2.98 | 6.98 | 2.23 | 3.62 | 3.93 | 6.12
13 | Cc1c(NC(=O)CSC(=S)N(C)C)c(=O)n(-c2ccccc2)n1C | > 100 | > 100 | > 100 | > 100 |  | > 100 | > 100 | > 100 | > 100 | > 100 | > 100 | > 100 | > 100 | > 100 | > 100 |  | > 100 | > 100 | > 100
14 | O=C(/C=C/c1ccccc1)c1cc(C(=O)/C=C/c2ccccc2)c(O)cc1O | > 100 | > 100 | > 100 |  | > 100 |  |  | > 100 | > 100 | > 100 | > 100 |  |  | > 100 |  | > 100 |  | > 100 | > 100
15 | CNC(=O)CCCNC(=O)CCCCC(=O)N(C)C |  | > 100 | > 100 |  |  |  | > 100 |  |  |  | > 100 |  | > 100 | > 100 | > 100 |  | > 100 | > 100 | 
16 | C=C1CCC2[C@](C)(CCC[C@]2(C)C(=O)O)[C@@H]1CCc1ccoc1 (some centres not stated) | 83.5 | 74.7 | > 100 | 65.8 | 71.2 | 70.4 | > 100 | 84.8 | 38 | > 100 |  | > 100 | 66 | > 100 | > 100 |  | 74.9 | > 100 | > 100
17 | CCOC(=O)c1c(N2CCOCC2)ncn(-c2cccc(Cl)c2)c1=O | > 100 | > 100 | > 100 | > 100 | > 100 |  | > 100 | > 100 | > 100 | > 100 | > 100 | > 100 | > 100 | > 100 | > 100 | > 100 | > 100 | > 100 | > 100
18 | Nc1nc(Cl)c(N)c(NCC2(CO)CCC(CCc3ccccc3)C2)n1 (configuration not stated) | 18.8 | > 70.7 | 32.2 | 42.5 | 31.3 |  | > 59 | > 62.4 | 25.9 | > 69.9 | 34.9 | 63.9 | 50.3 | 30.3 | 48 | 49.2 | 28.9 | 27.2 | 31.9
19 | COc1ccc(CCc2ccc3c(c2)OCO3)cc1 | > 100 | > 100 | > 100 | > 100 | > 100 | 45.4 |  | > 100 | > 100 | > 100 | > 100 | > 100 | > 100 | > 100 | > 100 | > 100 | > 100 | > 100 | > 100
20 | COc1cccc(/C=C2\SC(=S)N(/C=C3\C(=O)Oc4ccccc4C3=O)C2=O)c1O | > 100 |  | > 100 | > 100 | > 100 | > 100 | > 100 | > 100 | > 100 | > 100 | > 100 | > 100 | 95.7 | > 100 | > 100 |  | > 100 | > 100 | 87
21 | CC1(C2COC(=O)C2)SCCCS1 (configuration not stated) | > 100 | > 100 | > 100 | > 100 | > 100 | > 100 |  | > 100 | > 100 | > 100 |  | > 100 | > 100 | > 100 |  | > 100 | > 100 | > 100 | > 100
22 | Cc1cc(S(=O)(=O)NC2=NCCCN2)c(S)cc1Cl | > 100 | 74.7 | > 100 | 88.2 | 45.9 | 56.1 | > 100 | > 100 | 42.6 | > 100 |  | > 100 | > 100 | 72.4 | 75.9 |  | > 100 | 37.8 | > 100
23 | CC(C)(C)[Si](C)(C)OCCc1ccccc1C1CC2(S(=O)(=O)c3ccccc3)ON1CC2S(=O)(=O)c1ccccc1 (configuration not stated) | > 100 | > 100 | > 100 | > 100 |  |  | > 100 | > 100 |  | > 100 | > 100 | > 100 | > 100 |  | > 100 |  | > 100 | > 100 | > 100
24 | Nc1n[nH]c2c(C(=O)Nc3ccc(Cl)cc3)c(N)n(N)c(=O)c12 | > 100 | > 100 | > 100 | > 100 | > 100 | > 100 | > 100 | > 100 | > 100 | > 100 | > 100 | > 100 | > 100 | > 100 | > 100 |  | > 100 | > 100 | > 100
25 | CC(C)(C)n1c(=O)n(-c2ccccc2)n(C(C)(C)C)c1=O | > 100 | > 100 | > 100 | > 100 | > 100 | > 100 |  | > 100 | > 100 | > 100 | > 100 | > 100 | > 100 | > 100 | > 100 | > 100 | > 100 | > 100 | > 100
26 | CC(C)OC(=O)C1(C(C)C)CCc2ccc(C(=O)CCC(=O)O)cc21 (configuration not stated) | > 100 | > 100 | > 100 | > 100 | > 100 | > 100 | > 100 | > 100 | > 100 | > 100 | > 100 | > 100 |  | > 100 | > 100 |  | > 100 | > 100 | > 100
27 | CN(C(=S)Cc1ccc(Cl)c(Cl)c1)C1CCCC[C@@H]1N1CCCC1 (some centres not stated) |  | 89.2 |  | > 100 | > 100 |  | > 100 |  |  | > 100 |  |  | > 100 |  | > 100 |  | > 100 | 48.4 | 
28 | C=CCc1oc(C)nc1CCCC | > 100 | > 100 | > 100 | > 100 | > 100 |  | > 100 | > 100 | > 100 | > 100 | > 100 | > 100 | > 100 | > 100 | > 100 | > 100 | > 100 | > 100 | > 100
